Where “and” joins values, the source holds several entries; their conditions need not be identical. Equal values may be shown once.
Tested on: clinically isolated M. tuberculosis
Test: microbe, parasite or virus in culture
Assay type: cell-based

Q: For `C[C@]1(COc2ccc(N3CCC(Oc4ccc(OC(F)(F)F)cc4)CC3)cc2)Cn2cc([N+](=O)[O-])nc2O1` [OPC-67683, (R)-2-methyl-6-nitro-2-(4-[4-(4-trifluoromethoxyphenoxy)piperidin-1-yl]phenoxymethyl}-2,3-dihydroimidazo[2,1-b]oxazole], which “Cross-resistance with the currently used anti-TB drugs” value is on record?
A: no cross-resistance

Q: What about the MIC90 of the same compound?
A: 0.0134 µg/mL and 0.01221 µg/mL and 0.01279 µg/mL and 0.01341 µg/mL

From article PMC1664607 (PLoS Medicine, 2006)
